We go through 34 compounds from the RepoRT retention time repository.

The nature of the data set: RP, Restek Raptor Biphenyl, 100 × 2.1 mm, 2.7 µm, 50 °C, 0.4 mL/min, estimated dead time 0.55 min; A: water + 0.1% formic acid, pH 3; B: methanol + 0.1% formic acid, pH 3; gradient (min/%B) 0/5 1.12/5 6.41/99.5 10.01/99.5. The following applies: stereoisomer not certain.

`O=C1O[C@H]([C@@H](O)CO)C(O)=C1O` [L-Ascorbic acid]: the LC retention time is 3.46 min. Take `CC(CCC(=O)NCC(=O)O)C1CCC2C3CCC4CC(O)CCC4(C)C3CC(O)C12C` (centres undefined) [Glycodeoxycholic acid]: the LC retention time was 6.16 min. In the case of `CCCCCCCC[n+]1cccc(S(=O)(=O)[O-])c1` [C8-APS], the LC retention time was 4.8 min. As to `Cc1ncc(CO)c(C(=O)O)c1O` [4-PYRIDOXATE], the LC retention time is 1.8 min. Regarding `O=C(O)C(=O)Cc1ccccc1` [Phenylpyruvic acid], the LC retention time was 2.88 min. With `O=c1[nH]c(=O)c2[nH]c(=O)[nH]c2[nH]1` [URATE], the LC retention time is 0.774 min. To `CC[n+]1cccc(S(=O)(=O)[O-])c1` [C2-APS] belongs 0.835 min. `CCC=CCC=CCC=CCCCCCCCC(=O)O` [Linolenic acid]: the LC retention time was 6.53 min. To `Nc1nc2c(ncn2C2OC3COP(=O)(O)OC3C2O)c(=O)[nH]1` (centres undefined) [CYCLIC GMP] belongs 1.14 min; to `CC(C(=O)O)C(=O)O` [Methylmalonic acid], 0.96 min. Take `NC(=O)c1ccc[n+](C2OC(COP(=O)([O-])OP(=O)(O)OCC3OC(n4cnc5c(N)ncnc54)C(OP(=O)(O)O)C3O)C(O)C2O)c1` (centres undefined) [NADP]: the LC retention time was 0.746 min. To `CCCCCCCCCCCCC(O)C(=O)O` (centres undefined) [2-Hydroxytetradecanoic acid] belongs 6.09 min; to `O=C(O)CCCC(=O)O` [Glutaric acid], 1.37 min. Regarding `COc1cc(CC(=O)O)ccc1O` [HOMOVANILLATE], the LC retention time was 2.46 min. Regarding `NCCc1ccc(O)c(O)c1` [DOPAMINE], the LC retention time is 0.724 min.

As for `N[C@@H](Cc1cc(I)c(O)c(I)c1)C(=O)O` [3,5-DIIODO-L-TYROSINE], the LC retention time was 3.59 min. As for `CCCCCCCCCCCC[n+]1cccc(S(=O)(=O)[O-])c1` [C12-APS], the LC retention time is 5.79 min. Regarding `CCCC(C(=O)O)C(O)C(=O)O` (centres undefined) [3-Propylmalic acid], the LC retention time is 2.81 min. As for `CC(=O)NC(CC(C)C)C(=O)O` (centres undefined) [N-ACETYLLEUCINE], the LC retention time is 3.63 min.

In the case of `Cc1cn(C2CC(O)C(COP(=O)(O)O)O2)c(=O)[nH]c1=O` (centres undefined) [THYMIDINE-MONOPHOSPHATE], the LC retention time is 0.837 min. Turning to `O=C(O)C(O)c1cccc(O)c1` (centres undefined) [3-Hydroxymandelic acid], the LC retention time was 1.52 min.

Turning to `CCCCCCCCCCCCCCCCCC[n+]1cccc(S(=O)(=O)[O-])c1` [C18-APS], the LC retention time is 6.52 min. Turning to `O=C(O)CCCCCCCCCO` [10-HYDROXYDECANOATE], the LC retention time is 4.92 min. Turning to `O=C(O)CCCC(=O)C(=O)O` [2-Oxoadipic acid], the LC retention time was 0.793 min. For the compound `O=C(O)CC(O)CC(=O)O` [3-Hydroxyglutaric acid], the LC retention time was 0.77 min.

With `CC(C)CCCC(C)CCCC(C)CCCC(C)CC(=O)O` (centres undefined) [Phytanic acid], the LC retention time was 6.68 min. In the case of `N#Cc1c[nH]cc1-c1cccc2c1OC(F)(F)O2` [Fludioxonil], the LC retention time is 5.51 min. As for `CC(C)C(O)(CC(=O)O)C(=O)O` (centres undefined) [2-Isopropylmalic acid], the LC retention time is 2.76 min. As for `O=c1[nH]c(=O)c2ncn(C3OC(COP(=O)(O)O)C(O)C3O)c2[nH]1` (centres undefined) [XANTHOSINE-MONOPHOSPHATE], the LC retention time is 0.695 min. Turning to `O=c1[nH]c(=O)c2ncn(C3OC(CO)C(O)C3O)c2[nH]1` (centres undefined) [XANTHOSINE], the LC retention time was 1.47 min.

On to `CCCCCCCCCC[n+]1cccc(S(=O)(=O)[O-])c1` [C10-APS], for which the LC retention time is 5.39 min.

With `CCCCCCCCCCC[n+]1cccc(S(=O)(=O)[O-])c1` [C11-APS], the LC retention time was 5.61 min. To `Nc1nc2c(ncn2C2CC(O)C(COP(=O)(O)OP(=O)(O)O)O2)c(=O)[nH]1` (centres undefined) [DGDP] belongs 0.695 min. For the compound `CCCCCCCCCCCCCCCC(=O)O` [Palmitic acid], the LC retention time is 6.54 min.
